Source: publication PMC8453745, “Human Mass Balance and Metabolite Profiling of [^14C]‐Pamiparib, a Poly (ADP‐Ribose) Polymerase Inhibitor, in Patients With Advanced Cancer” (Clinical Pharmacology in Drug Development, 2021)
“Also recorded” adds a separate entry of the source.

Tests used:
rCYP3A4 = target: T1, rCYP3A4 (Homo sapiens, UniProt P08684); test: incubation of pamiparib with recombinant CYP3A4; format: in vitro ADME; details: 1 μM pamiparib, 50 pmol/mL, 90 minutes
T1 construct: purchased Corning (Woburn, New York)
T1 sequence (P08684 whole entry): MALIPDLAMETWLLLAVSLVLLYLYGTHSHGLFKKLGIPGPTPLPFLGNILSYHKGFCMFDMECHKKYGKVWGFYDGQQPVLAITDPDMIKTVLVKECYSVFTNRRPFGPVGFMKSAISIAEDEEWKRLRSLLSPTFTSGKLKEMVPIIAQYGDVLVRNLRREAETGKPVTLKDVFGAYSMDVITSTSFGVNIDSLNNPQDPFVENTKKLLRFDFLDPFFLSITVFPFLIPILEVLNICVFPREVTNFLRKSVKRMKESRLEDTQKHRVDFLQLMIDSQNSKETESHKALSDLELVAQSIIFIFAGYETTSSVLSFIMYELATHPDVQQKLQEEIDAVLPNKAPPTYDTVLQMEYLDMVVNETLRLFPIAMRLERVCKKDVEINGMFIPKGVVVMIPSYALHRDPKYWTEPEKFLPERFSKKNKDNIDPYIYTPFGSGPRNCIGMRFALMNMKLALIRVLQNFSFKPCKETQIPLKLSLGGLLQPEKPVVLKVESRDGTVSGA
Procedure: (§1) Metabolic stability in human liver microsomes (HLMs) and cytochrome P450 (CYP450) phenotyping assays were conducted in 3D BioOptima (Suzhou, China) using validated methodology, [13] to determine the intrinsic clearance and enzymes responsible for metabolism of pamiparib. HLMs for microsome stability was from BD Biosciences (Woburn, New York). For phenotyping, HLMs and recombinant P450 (rCYP) were from Corning (Woburn, New York). Pamiparib (1 μM) was incubated with pooled HLM (0.5 mg/mL), NADPH (1 mM), and MgCl2 (3 mM) terminated at 0, 5, 15, 30, 60, and 90 minutes. The intrinsic clearance was calculated as 0.693/(t1/2 × HLM concentration), where t1/2 is the half‐life of pamiparib determined in HLMs. For phenotyping in HLMs, pamiparib (1 μM) was incubated in the absence or presence of isoform‐selective inhibitors: 0.2 μM α‐naphthoflavone for CYP1A2, 2 μM clopidogrel for CYP2B6, 16 μM montelukast for CYP2C8, 10 μM sulfaphenazole for CYP2C9, 30 μM nootkatone for CYP2C19, 2 μM quinidine for CYP2D6, and 1 μM ketoconazole for CYP3A. The following isoform‐selective probe substrates served as positive controls: 40 μM phenacetin for CYP1A2, 100 μM bupropion for CYP2B6, 2 μM amodiaquine for CYP2C8, 5 μM diclofenac for CYP2C9, 40 μM S‐mephenytoin for CYP2C19, 5 μM dextromethorphan for CYP2D6, and 2 μM midazolam for CYP3A4. […] Pamiparib, M1, and M2 were analyzed by LC‐MS/MS.

[1] = system: rCYP1A2, rCYP2B6, rCYP2C8, rCYP2C9, rCYP2C19, rCYP2D6, rCYP3A4; test: incubation of pamiparib with recombinant P450 isoform panel; format: in vitro ADME; details: 1 μM pamiparib, 50 pmol/mL, 90 minutes
Procedure: as §1

rCYP2D6 = target: T2, rCYP2D6 (Homo sapiens, UniProt P10635); test: incubation of pamiparib with recombinant CYP2D6; format: in vitro ADME; details: 1 μM pamiparib, 50 pmol/mL, 90 minutes
T2 construct: purchased Corning (Woburn, New York)
T2 sequence (P10635 whole entry): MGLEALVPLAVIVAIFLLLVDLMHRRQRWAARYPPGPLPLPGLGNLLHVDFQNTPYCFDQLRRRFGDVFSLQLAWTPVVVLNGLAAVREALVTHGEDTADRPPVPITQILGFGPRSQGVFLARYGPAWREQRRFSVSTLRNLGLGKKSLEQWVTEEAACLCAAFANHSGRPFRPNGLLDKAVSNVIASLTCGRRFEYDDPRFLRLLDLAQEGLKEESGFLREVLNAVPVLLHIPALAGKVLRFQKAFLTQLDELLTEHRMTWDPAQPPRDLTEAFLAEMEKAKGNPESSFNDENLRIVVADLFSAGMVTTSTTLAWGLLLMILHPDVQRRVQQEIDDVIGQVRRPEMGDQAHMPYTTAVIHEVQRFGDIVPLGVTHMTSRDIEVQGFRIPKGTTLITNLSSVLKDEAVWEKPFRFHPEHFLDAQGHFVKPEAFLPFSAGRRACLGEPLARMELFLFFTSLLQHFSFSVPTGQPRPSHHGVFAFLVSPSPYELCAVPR
Procedure: as §1

[2] = metabolite profiling in pooled urine (radioprofiling, LC‐MS); format: in vivo, human; details: pooled urine 0‐96 hours, mean
Procedure: (§2) Total radioactivity concentrations of [^14C]‐pamiparib in whole blood, plasma, urine, and feces were determined by liquid scintillation counting (LSC). Radioactivity in each sample was measured for 5 minutes using a Packard Tri‐Carb liquid scintillation counter model 2100TR, 2900TR, or 3100TR (Canberra Packard, Pangbourne, Berks, Australia) with the facilities for computing quench‐corrected disintegrations per minute. Metabolite identification in plasma, urine, and feces was conducted by LC‐MS. Quantitation of the metabolites present in plasma, urine, and feces was based on the profiles of radioactivity. The limit of quantitation for radioactivity in plasma, urine, and feces was set at 1% of each chromatographic analysis (run) and 10 counts per minute (cpm) peak height; therefore, radioactive peaks that were <1% of the total run or <10 cpm peak height were reported as not detected. In addition, pamiparib and standards were reported, regardless of the percentage of run or peak height.
Each aliquot of urine (about 1 mL, weighed) was added directly to liquid scintillant prior to LSC. For metabolite profiling, urine samples collected 0‐4, 4‐8, 8‐12, 12‐24, 24‐48, 48‐72, and 72‐96 hours postdose were pooled by individual patient to generate 0‐ to 96‐hour pooled samples including 0.2% of each sample by weight. The radioactivity in each pooled sample was determined by LSC. The total amount of urine collected was factored into the recovery calculation. […] Pooled urine samples were analyzed by LC‐MS, with eluent fractions collected at 10‐second intervals into 96‐well plates containing solid scintillant. Radioactivity in each well was determined using TopCount analysis, and radiochemical profiles were generated based on radioactivity counts.
(§3) Metabolic profiling was performed on plasma, urine, and feces samples using LC‐MS. Shimadzu/Nexera LC‐30AD pumps and Shimadzu/Prominence DGU‐20A5R degasser were used with Shimadzu/Prominence controller CBM‐20A. The high‐pressure liquid chromatograph (HPLC) was equipped with an autoinjector (Shimadzu/Nexera SIL‐30ACMP) set at 10°C and a fraction collector (Leap Technologies PAL HTC‐xt) set at 15°C. Thermo Fisher Scientific Q Exactive was the mass spectrometer system.

[3] = metabolite profiling in plasma (radioprofiling, LC‐MS); format: in vivo, human; details: plasma
Procedure: as §2
For metabolite profiling in plasma, ≈1.9 to 2.8 g of each plasma sample collected 0.5, 1, 2, 6, 12, and 24 hours postdose was extracted twice with 6 mL of 0.1% formic acid in acetonitrile (ACN). Duplicate aliquots were analyzed by LSC to determine extraction recoveries, which ranged from 77.4% to 98.5%. The combined supernatants were evaporated to dryness under nitrogen and reconstituted in 2:1 reverse osmosis water:methanol (MeOH). Duplicate aliquots were analyzed by LSC to determine reconstitution recoveries, which ranged from 89.3% to 115%. The reconstituted samples were analyzed by LC‐MS, with eluent fractions collected at 10‐second intervals into 96‐well plates containing solid scintillant. Radioactivity in each well was determined using TopCount analysis, and radiochemical profiles were generated based on radioactivity counts.
as §3

rCYP2C8 = target: T3, rCYP2C8 (Homo sapiens, UniProt P10632); test: incubation of pamiparib with recombinant CYP2C8; format: in vitro ADME; details: 1 μM pamiparib, 50 pmol/mL, 90 minutes
T3 construct: purchased Corning (Woburn, New York)
T3 sequence (P10632 1-490): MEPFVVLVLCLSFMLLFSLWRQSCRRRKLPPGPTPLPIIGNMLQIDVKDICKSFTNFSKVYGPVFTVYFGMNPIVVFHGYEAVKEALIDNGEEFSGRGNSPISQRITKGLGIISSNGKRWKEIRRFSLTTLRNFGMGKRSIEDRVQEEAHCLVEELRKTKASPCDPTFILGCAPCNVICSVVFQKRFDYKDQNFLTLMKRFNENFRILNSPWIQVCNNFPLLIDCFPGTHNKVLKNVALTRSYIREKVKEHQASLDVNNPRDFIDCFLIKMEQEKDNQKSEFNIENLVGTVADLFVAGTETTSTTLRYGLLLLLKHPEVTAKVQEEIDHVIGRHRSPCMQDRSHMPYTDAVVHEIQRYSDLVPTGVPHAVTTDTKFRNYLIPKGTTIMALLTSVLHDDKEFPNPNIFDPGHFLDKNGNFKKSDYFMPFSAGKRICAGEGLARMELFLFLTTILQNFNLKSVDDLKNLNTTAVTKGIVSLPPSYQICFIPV
Procedure: as §1

[4] = metabolite profiling in pooled feces (radioprofiling, LC‐MS); format: in vivo, human; details: pooled feces 0‐120 hours, mean
Procedure: as §2
Portions of fecal homogenates (about 200‐500 mg) were subjected to combustion analysis prior to LSC. For metabolite profiling, feces samples collected 0‐24, 24‐48, 48‐72, 72‐96, and 96‐120 hours postdose were pooled by individual patient to generate 0‐ to 120‐hour pooled samples including 0.5% of each sample by weight. Feces were pooled per patient (if required) according to the appropriate 24‐hour collection period. The samples were homogenized in deionized water, avoiding excessive dilution (data on file). The radioactivity in each pooled sample was determined by LSC. The total amount of feces collected was factored into the recovery calculation. Approximately 1.6 to 2.7 g of each pooled feces sample was extracted twice with 6 mL of 0.1% formic acid in ACN. […] The combined supernatants were evaporated to dryness under nitrogen and reconstituted in 300 μL of MeOH. […] The reconstituted samples were analyzed by LC‐MS, with eluent fractions collected, and radiochemical profiles were generated based on radioactivity counts. […]

[5] = stability of metabolite M2; format: physicochemical; details: dehydrates in the LC‐MS source or under other conditions

Row | metabolite formation after incubation of pamiparib with rCYP3A4 (rCYP3A4) | metabolite detection across rCYP isoforms [1] | metabolite formation after incubation of pamiparib with rCYP2D6 (rCYP2D6) | % of Radioactive Dose, Urine [2] | Percent of Total Radioactivity Concentration (AUC0‐24h) ([3]; patient S103) | Percent of Total Radioactivity Concentration (AUC0‐24h) ([3]; patient S104) | metabolite formation after incubation of pamiparib with rCYP2C8 (rCYP2C8) | % of Radioactive Dose, Feces [4] | stability of the metabolite [5] | SMILES
1 | detected; also recorded: generated | not detected with other rCYP isoforms | detected; also recorded: generated | 0.53% |  |  |  |  |  | C[C@]12CCC[N+]1([O-])CC1=NNC(=O)c3cc(F)cc4[nH]c2c1c34 (stereo partly drawn) [Metabolite M1]
2 | higher levels | detected in all isoforms except rCYP2C9 | higher levels; also recorded: generated | not identified | 2.00% | 4.38% | higher levels; also recorded: generated | not identified | not stable | C[C@]12CCC(O)N1CC1=NNC(=O)c3cc(F)cc4[nH]c2c1c34 (stereo partly drawn) [Metabolite M2]
3 |  |  |  | 8.05% |  |  |  | 1.3% |  | C[C@]1(CCCO)NCC2=NNC(=O)c3cc(F)cc4[nH]c1c2c34 [Metabolite M10, pamiparib hydrate]
